The test relates to muscle progenitors derived from DMD hiPSC. Kind of test: Myotube assay: total myotube area per well (alpha-actinin staining). It counts as cell-based, human. The note with it: Homo sapiens, Myotube, 72 h, DMD or WT cell source not given; for Emax: efficacy, MA = normalized Myotube Area, 3 days incubation; for EC50: myogenic activity, half-maximal generation of myotubes, 10 points dose-response 1.5 nM to 30 µM, 3 days. Here is the method: An in vitro assay for assessing the efficacy of compounds for use in treating, ameliorating, delaying, curing and/or preventing a disease or condition associated with muscle cells and/or satellite cells is described in example 78. Herein, the generation of myotubes and satellite cells after adding a compound to a myotube assay workflow is assessed. Said myotube assay workflow is derived from wild-type or DMD human induced pluripotent stem cells (WT hiPSC or DMD hiPSC). Before the addition of said compound, the assay comprises satellite-like cells, but no significant amount of myotubes.
The efficacy of said compound for use in treating, ameliorating, delaying, curing and/or preventing a disease or condition associated with muscle cells and/or satellite cells is positively correlated with the generation of myotubes (i.e. the increase of the area occupied by myotubes on the assay) and/or satellite cells (i.e. the increase of the number of satellite cells) in the assay after adding said compound. The generation of myotubes by the addition of said compound is expressed as the EC50 value, the concentration of said compound that corresponds with the half-maximal generation of myotubes, and the MA (normalized myotube area) value, the normalized area occupied by generated myotubes on the assay. […] Since muscle cells are formed from myotubes during myogenesis, the generation of myotubes in the assay is a good indicator of the ability of said compound to induce the formation of functional muscle cells in vivo. The number of satellite cells is measured as the percentage of Pax7 positive cells, relative to the total number of cells in the assay, as shown in Figure 3. The percentage of Pax7 is a good indicator of the ability of said compound to induce the formation of satellite cells which are able to play a role in muscle repair and regeneration in vivo.
DMD human induced pluripotent stem cells (hereafter "DMD hiPSC"), generated from the NCRM-1 hiPSC WT cell line by gene editing, or WT human induced pluripotent stem cells (hereafter "WT hiPSC"), being NCRM-1 hiPSC wt cell line, have been differentiated according to Chal et al. 2015, 2016, to produce muscle progenitors (hereafter "hMP"). The hMP population contains satellite-like cells (i.e Pax7-positive cells) and satellite cells' progenies (i.e. Myogenin-positive cells).
Figure 1 provides an example of a Myotube assay workflow. At day 0, hMP are thawed and 3.1 million cells are plated into a T75-flask coated with hESC-qualified Matrigel™ (Corning) in SkGM proliferating medium (PromoCells), supplemented with 5 µM Y-27632 (Tocris Bioscience). On day 2, SkGM proliferating medium is refreshed. On day 4, hMP are harvested and transferred into a 384-well plate coated with collagen type I at a density of 3500 cells/well in a DMEM-based medium, containing 5% of knockout serum replacement (Gibco), 1% PenStrep (Gibco), 1% MEM NEAA (Gibco) and 0.1 mM 2-mercaptoethanol (Gibco) (hereafter "K5 medium") and 5 µM Y-27632. Compounds to be tested are then added in the medium and incubated for 3 days at 37°C. On day 7, cells are fixed and immunostained. For example, myotubes (alpha-actinin staining) and satellite-like (Pax7 staining) cells can be analyzed for total myotube area per well or Pax7-positive cell quantification.
DMD hMP were put in the Myotube assay according to the workflow described in Example 2.1. In particular, compound (i) was added at concentrations ranging from 1.5 nM to 30 µM, starting from day 4. hMP were cultivated for three more days in presence of compound (i), then fixed and analyzed for quantification of total myotube area per well. Duplicates of each condition were averaged.

Counter-ions that a name gives are not always drawn.

A word on the Emax: it is the size of the effect at its maximum, as opposed to the concentration needed. Usually EC50 stands for the midpoint of the concentration-response curve. On to `CC(C)(C)c1cc(NC(=O)Nc2ccc(Oc3ccnc4[nH]c(=O)cnc34)cc2F)n(-c2ncccn2)n1` [(m), 1-(3-(tert-butyl)-1-(pyrimidin-2-yl)-1 H-pyrazol-5-yl)-3-(2-fluoro-4-((3-oxo-3,4-dihydropyrido[2,3-b]pyrazin-8-yl)oxy)phenyl)urea], for which the Emax was in the range of 50 to 75% and the EC50 is at least 5000 nM.
Taken in the same sequence, the figures for `CSc1cc(Oc2ccnc(NCCN(C)C)c2)ccc1NC(=O)Nc1cc(C(C)(C)C)nn1-c1ccccc1` [(ck), 1-(3-(tert-butyl)-1-phenyl-1 H-pyrazol-5-yl)-3-(4-((2-((2-(dimethylamino)ethyl)amino)pyridin-4-yl)oxy)-2-(methylthio)phenyl)urea hydrochloride] were at least 75% and 500 to 1000 nM.
The corresponding values for `CC(C)(C)c1cc(NC(=O)Nc2ccc(Oc3ccnc4[nH]c(=O)cnc34)cc2F)n(-c2ccc3ncccc3c2)n1` [(n), 1-(3-(tert-butyl)-1-(quinolin-6-yl)-1 H-pyrazol-5-yl)-3-(2-fluoro-4-((3-oxo-3,4-dihydropyrido[2,3-b]pyrazin-8-yl)oxy)phenyl)urea] are at least 75% and below 500 nM.
The corresponding values for `CSc1cc(NC(=O)Nc2cc(C(C)(C)C)nn2-c2ccccc2)ccc1Oc1ccnc2[nH]c(=O)cnc12` [(dn), 1-(3-(tert-butyl)-1-phenyl-1H-pyrazol-5-yl)-3-(3-(methylthio)-4-((3-oxo-3,4-dihydropyrido[2,3-b]pyrazin-8-yl)oxy)phenyl)urea] are at least 75% and 500 to 1000 nM.
`CNC(=O)c1ccc(Oc2cccc(NC(=O)Nc3cc(C(C)(C)C)nn3-c3ccccc3)c2)cn1` [(ab), 5-(3-(3-(3-(tert-butyl)-1-phenyl-1H-pyrazol-5-yl)ureido)phenoxy)-N-methylpicolinamide]: the Emax was in the range of 50 to 75% and the EC50 fell in the range of 500 to 1000 nM.
The corresponding values for `CSc1cc(Oc2cccc3c2CCC(=O)N3)ccc1NC(=O)Nc1cc(C(C)(C)C)nn1-c1ccccc1` [(ci), 1-(3-(tert-butyl)-1-phenyl-1H-pyrazol-5-yl)-3-(2-(methylthio)-4-((2-oxo-1,2,3,4-tetrahydroquinolin-5-yl)oxy)phenyl)urea] are 25 to 50% and at least 5000 nM.
The corresponding values for `CSc1cc(Oc2ccnc3c2CCC(=O)N3)ccc1NC(=O)Nc1cc(C(C)(C)C)nn1-c1ccc(C)cc1` [(by), 1-(3-(tert-butyl)-1-(p-tolyl)-1H-pyrazol-5-yl)-3-(2-(methylthio)-4-((7-oxo-5,6,7,8-tetrahydro-1,8-naphthyridin-4-yl)oxy)phenyl)urea] are at least 75% and below 500 nM.
Taken in the same sequence, the figures for `CNC(=O)c1cc(Oc2ccc(NC(=O)Nc3cc(C(C)(C)C)nn3-c3ccccc3)c(SC)c2)ccn1` [(br), 4-(4-(3-(3-(tert-butyl)-1-phenyl-1H-pyrazol-5-yl)ureido)-3-(methylthio)phenoxy)-N-methylpicolinamide] were at least 75% and at least 5000 nM.
In turn, `CCOC(=O)Nc1cc(Oc2ccc(NC(=O)Nc3ncc(C(C)(C)C)s3)c(SC)c2)ccn1` [(df), ethyl (4-(4-(3-(5-(tert-butyl)thiazol-2-yl)ureido)-3-(methylthio)phenoxy)pyridin-2-yl)carbamate] displayed an Emax of at least 75% and an EC50 below 500 nM.
In turn, `CSc1cc(Oc2ccnc3[nH]c(=O)cnc23)ccc1NC(=O)Nc1cc(C(C)(C)C)nn1-c1ccc(C#N)cc1` [(cc), 1-(3-(tert-butyl)-1-(4-cyanophenyl)-1H-pyrazol-5-yl)-3-(2-(methylthio)-4-((3-oxo-3,4-dihydropyrido[2,3-b]pyrazin-8-yl)oxy)phenyl)urea] came in with an Emax of at least 75% and an EC50 below 500 nM.
The corresponding values for `CSc1cc(Oc2cccc3[nH]c(=O)cnc23)ccc1NC(=O)Nc1cc(C(C)(C)C)nn1-c1ccccc1` [(bu), 1-(3-(tert-butyl)-1-phenyl-1H-pyrazol-5-yl)-3-(2-(methylthio)-4-((2-oxo-1,2-dihydroquinoxalin-5-yl)oxy)phenyl)urea] are 25 to 50% and at least 5000 nM.
